According to US12595269B2, “Morpholine-like monoamine releasers” (Solvonis Therapeutics Ireland Holdings Limited, priority 2022, dated 2026):

Assay: Plasma protein binding by equilibrium dialysis, rat plasma
Type: in vitro ADME, Sprague Dawley (SD) rats
Conditions: male, Sprague Dawley, pH 7.4
Description: Methods and Procedure: This study was performed in agreement with the previously described procedures to assure data integrity and adherence to GLP standards. Plasma protein binding and blood tissue binding of test items (0.5 μM) was determined using biological samples from male Sprague Dawley (SD) rats and humans. […] Dexamethasone was used as a control for lung tissue binding. Various biological samples were spiked with test compounds according to the methods that follow.
Preparation of plasma or blood samples: An appropriate amount of test compound was dissolved in DMSO to yield a 10 mM solution. Further dilutions, to obtain 50 μM working solutions (WS), were then prepared using 50% acetonitrile in Milli-Q water. These 100×WS were used to spike plasma or blood to obtain a final concentration of 0.5 μM. From this initial spiking solution, control samples (n=3), referred to as T=0, were immediately extracted and used to calculate the recovery of the test item.
An equilibrium dialysis method was performed to determine protein binding in the various biological samples described herein. Materials were prepared and methods were in accordance with the following procedures. […]
Dialysis buffer was prepared by dissolving Na2HPO4 8.69 g, KH2PO4 1.90 g, and NaCl 4.11 g in 1 L of MilliQ water, and adjusting the pH to 7.4 with H3PO4. […] In order to control the integrity of the membrane after the dialysis process, the presence of protein was assessed in the buffer compartment. […]
Samples were analyzed in a LC-MS/MS system using an analytical method to monitor the compound to internal standard peak area ratios as representative of the compound concentrations. Alternatively, samples were analyzed by RapidFire.
Protein binding in plasma, blood, brain, and lung tissue samples were determined with the following formula: Afu=Buffer/x, wherein “x” may be plasma, blood, brain, or lung, and “Afu” is the apparent fraction unbound, and the other variables refer to the analyte/internal standard ratio determined in their specific compartment (buffer, plasma, blood, brain homogenate, and lung homogenate); […]

Structure (SMILES) | fraction unbound at 5 h, 0.5 µM
Clc1ccc(C23CNC(CO2)C3)cc1Cl (stereo not drawn) [522A, 1-(3,4-dichlorophenyl)-2-oxa-5-azabicyclo[2.2.1]heptane] | 0.12
CNC(C)Cc1ccc2c(c1)OCO2 (stereo not drawn) [MDMA, reference compound] | > 0.5
Clc1ccc([C@@]23CN[C@@H](CO2)C3)cc1Cl (single isomer, unassigned) [518A] | 0.106
